For data set [1], the system named is MIA PaCa-2. The experiment in a line: Induction of cell cycle arrest in human MIA PaCa-2 cells assessed as accumulation of cells in G2/M phase at 0.1 uM incubated for 48 hrs by RNase/propidium iodide staining based flow cytometry analysis (reference value: 2.71%). In kind it is functional.
Data set [2] deals with MIA PaCa-2. The experiment in a line: Induction of apoptosis in human MIA PaCa-2 cells assessed as live cells at 0.5 uM incubated for 24 hrs by Annexin V-FITC/PI staining based flow cytometry analysis (reference value: 90.2%). In kind it is functional.
Data set [3] deals with MIA PaCa-2. The experiment in a line: Induction of cell cycle arrest in human MIA PaCa-2 cells assessed as accumulation of cells at S phase at 0.1 uM incubated for 48 hrs by RNase/propidium iodide staining based flow cytometry analysis (Rvb =26.9 %). In kind it is functional. In general terms: A flow cytometer gives signals particle by particle.
Data set [4] has as its system MIA PaCa-2. In words: Induction of cell cycle arrest in human MIA PaCa-2 cells assessed as accumulation of cells in G0/G1 phase at 0.1 uM incubated for 48 hrs by RNase/propidium iodide staining based flow cytometry analysis (reference value: 70.4%). In kind it is functional.
Data set [5] has as its system MIA PaCa-2. In words: Induction of apoptosis in human MIA PaCa-2 cells assessed as necrotic cells at 0.5 uM incubated for 24 hrs by Annexin V-FITC/PI staining based flow cytometry analysis (reference value: 2.7%). The data set is classed as functional.
The subject of data set [6] is MIA PaCa-2. The experiment in a line: Induction of apoptosis in human MIA PaCa-2 cells assessed as early apoptotic cells at 0.5 uM incubated for 24 hrs by Annexin V-FITC/PI staining based flow cytometry analysis (reference value: 5.1%). In kind it is functional.
The test system of data set [7] is MIA PaCa-2. The experiment in a line: Induction of apoptosis in human MIA PaCa-2 cells assessed as live cells at 0.1 uM incubated for 48 hrs by Annexin V-FITC/PI staining based flow cytometry analysis (reference value: 96.3%). The data set is classed as functional.
Data set [8] is described as follows: Cytotoxicity against HEK293 cells assessed as inhibition of cell growth incubated for 72 hrs by MTT assay. The data set is classed as toxicity, cell-based. Particulars: human. A general note: Tetrazolium dyes change colour on reduction, which living cells bring about.
The subject of data set [9] is MIA PaCa-2. The experiment in a line: Induction of apoptosis in human MIA PaCa-2 cells assessed as early apoptotic cells at 0.1 uM incubated for 48 hrs by Annexin V-FITC/PI staining based flow cytometry analysis (reference value: 1.8%). In kind it is functional.
The test system of data set [10] is MIA PaCa-2. In words: Induction of apoptosis in human MIA PaCa-2 cells assessed as viable cells at 0.5 uM incubated for 48 hrs by Annexin V-FITC/PI staining based flow cytometry analysis (reference value: 96.3%). In kind it is functional. Particulars: read-out: Activity.
Data set [11] is described as follows: Cytotoxicity against human HFF-1 cells assessed as inhibition of cell growth incubated for 72 hrs by MTT assay. The data set is classed as toxicity, cell-based.
In data set [12] the test system is MIA PaCa-2. The experiment in a line: Induction of cell cycle arrest in human MIA PaCa-2 cells assessed as accumulation of cells at S phase at 0.1 uM incubated for 24 hrs by RNase/propidium iodide staining based flow cytometry analysis (Rvb =27.6 %). In kind it is functional.
Data set [13] concerns MIA PaCa-2. The experiment in a line: Induction of apoptosis in human MIA PaCa-2 cells assessed as late apoptotic cells at 0.5 uM incubated for 24 hrs by Annexin V-FITC/PI staining based flow cytometry analysis (reference value: 2.04%). The data set is classed as functional.
Data set [14] has as its system MIA PaCa-2. In words: Induction of apoptosis in human MIA PaCa-2 cells assessed as necrotic cells at 0.1 uM incubated for 24 hrs by Annexin V-FITC/PI staining based flow cytometry analysis (reference value: 2.7%). In kind it is functional.
For data set [15], the system named is MIA PaCa-2. In words: Induction of apoptosis in human MIA PaCa-2 cells assessed as viable cells at 0.1 uM incubated for 24 hrs by Annexin V-FITC/PI staining based flow cytometry analysis (reference value: 90.2%). In kind it is functional. Particulars: read-out: Activity.
In data set [16] the test system is PANC-1. The experiment in a line: Cytotoxicity against human PANC-1 cells assessed as inhibition of cell growth incubated for 72 hrs by MTT assay. To be noted: PANC-1, 72 h. The data set is classed as functional, cell-based.
Data set [17] concerns MIA PaCa-2. The experiment in a line: Induction of cell cycle arrest in human MIA PaCa-2 cells assessed as accumulation of cells in G0/G1 phase at 0.1 uM incubated for 24 hrs by RNase/propidium iodide staining based flow cytometry analysis (reference value: 64.3%). The data set is classed as functional.
The test system of data set [18] is MIA PaCa-2. In words: Induction of apoptosis in human MIA PaCa-2 cells assessed as late apoptotic cells at 0.1 uM incubated for 24 hrs by Annexin V-FITC/PI staining based flow cytometry analysis (reference value: 2.04%). In kind it is functional.
Data set [19] concerns MIA PaCa-2. In words: Induction of apoptosis in human MIA PaCa-2 cells assessed as early apoptotic cells at 0.5 uM incubated for 48 hrs by Annexin V-FITC/PI staining based flow cytometry analysis (reference value: 1.8%). The data set is classed as functional.
For data set [20], the system named is MIA PaCa-2. The experiment in a line: Induction of apoptosis in human MIA PaCa-2 cells assessed as early apoptotic cells at 0.1 uM incubated for 24 hrs by Annexin V-FITC/PI staining based flow cytometry analysis (reference value: 5.1%). In kind it is functional.
The test system of data set [21] is MIA PaCa-2. The experiment in a line: Induction of cell cycle arrest in human MIA PaCa-2 cells assessed as accumulation of cells in G2/M phase at 0.1 uM incubated for 24 hrs by RNase/propidium iodide staining based flow cytometry analysis (reference value: 8.11%). The data set is classed as functional.
Data set [22] concerns MIA PaCa-2. The experiment in a line: Induction of apoptosis in human MIA PaCa-2 cells assessed as late apoptotic cells at 0.5 uM incubated for 48 hrs by Annexin V-FITC/PI staining based flow cytometry analysis (reference value: 0.8%). The data set is classed as functional.
Data set [23] deals with MIA PaCa-2. In words: Induction of apoptosis in human MIA PaCa-2 cells assessed as necrotic cells at 0.1 uM incubated for 48 hrs by Annexin V-FITC/PI staining based flow cytometry analysis (reference value: 1.07%). The data set is classed as functional.
Data set [24] has as its system MIA PaCa-2. In words: Induction of apoptosis in human MIA PaCa-2 cells assessed as necrotic cells at 0.5 uM incubated for 48 hrs by Annexin V-FITC/PI staining based flow cytometry analysis (reference value: 1.07%). In kind it is functional.
Data set [25] is described as follows: Cytotoxicity against human HPDE cells assessed as inhibition of cell growth incubated for 72 hrs by MTT assay. In kind it is toxicity, cell-based.
Data set [26] concerns MIA PaCa-2. The experiment in a line: Induction of apoptosis in human MIA PaCa-2 cells assessed as late apoptotic cells at 0.1 uM incubated for 48 hrs by Annexin V-FITC/PI staining based flow cytometry analysis (reference value: 0.8%). The data set is classed as functional.
The test system of data set [27] is MIA PaCa-2. In words: Induction of autophagy in human MIA PaCa-2 cells assessed as accumulation of GABARAPL1 marker gene expression at […] incubated for 72 hrs by Western blot analysis. In kind it is functional, cell-based. (In general: In western blotting, separated proteins are transferred to a membrane and probed.)
Data set [28] relates to MIA PaCa-2. The experiment in a line: Cytotoxicity against human MIA PaCa-2 cells assessed as inhibition of cell growth incubated for 72 hrs by MTT assay. The data set is classed as functional, cell-based. To be noted: MIA PaCa-2, 72 h.
Data set [29] has as its system MIA PaCa-2. In words: Induction of autophagy in human MIA PaCa-2 cells assessed as accumulation of LC3B marker gene expression at […] incubated for 72 hrs by Western blot analysis. In kind it is functional, cell-based.
Data set [30] has as its system MIA PaCa-2. In words: Induction of autophagy in human MIA PaCa-2 cells assessed as accumulation of WIP11 marker gene expression at […] incubated for 72 hrs by Western blot analysis. The data set is classed as functional, cell-based.

The structures appear in SMILES notation. The source made the active and inactive calls. The calls are words filed in the database; no cut-off is given here.

As for `Nc1ccn([C@@H]2O[C@H](CO)[C@@H](O)C2(F)F)c(=O)n1` [GEMCITABINE], the Activity in data set [1] came to 0%; in data set [2], 87.2%; in data set [3], 89.3%; in [4], 10.8%; in data set [5], 2.4%; in [6], 7.6%. Further, the Activity in data set [7] was determined as 93.7%; in data set [9] it was 2.2%; in data set [12], 78.03%; in data set [13], 2.8%; in [14], 0.8%; in data set [17], 21.04%. For the same compound, the Activity came to 4% in data set [18]; 5.2% in data set [19]; 16.1% in data set [20]; 0.93% in data set [21]; 2.3% in data set [22]; 2.1% in data set [23]. The Activity in [24] was 2.6%; in data set [26], 2.01%. Further, the IC50 (usually the concentration that inhibits the measured activity by half) at 72 h turned out to be 50 nM in [8], 14400 nM in data set [11] and 1 nM in data set [25]. The viability at 0.5 µM in data set [10] is 90%. In addition, the viability at 0.1 µM in data set [15] is 79.1%. Besides, the IC50 in data set [16] was 200 nM.

As for `CC1=C(CC(=O)O)c2cc(F)ccc2/C1=C\c1ccc([S+](C)[O-])cc1` (stereo not given), the outcome in data set [27], in data set [29] and in [30] was Active. In [28], the half-maximal inhibitory concentration (IC50) turned out to be 300000 nM.

Source of the values: ChEMBL document CHEMBL5154879, “Induction of Genes Implicated in Stress Response and Autophagy by a Novel Quinolin-8-yl-nicotinamide QN523 in Pancreatic Cancer” (J Med Chem, 2022).
